# Source: US6667306B1, “Platelet ADP receptor inhibitors” (Millennium Pharmaceuticals, Inc., priority 1998, dated 2003)
# Where two headings read alike, the source gives them in different places.
# Legend:
# [1] = system: ADP-induced human platelet aggregation; assay: Inhibition of ADP-mediated platelet aggregation in vitro (96-well microtiter assay, washed platelets); assay type: cell-based; conditions: for IC50: Platelet
# Method: The effect of test Compounds 1-8 of, respectively, Examples 1-8 on ADP-induced human platelet aggregation was assessed in 96-well microtiter assay. Human venous blood was collected from healthy, drug-free volunteers into ACD (85 mM sodium citrate, 111 mM glucose, […] citric acid) containing PGI2 (1.25 ml ACD containing 1.6 μM PGI2/10 ml blood; PGI2 was from Sigma, St. Louis, Mo.). Platelet-rich plasma (PRP) was prepared by centrifugation at 160×g for 20 minutes at room temperature. Washed platelets were prepared by centrifuging PRP for 10 minutes at 730×g and resuspending the platelet pellet in CGS (13 mM sodium citrate, 30 mM glucose, 120 mM NaCl; 2 ml CGS/10 ml original blood volume) containing 1 U/ml apyrase (grade V, Sigma, St. Louis, Mo.). After incubation at 37° C. for 15 minutes, the platelets were collected by centrifugation at 730×g for 10 minutes and resuspended at a concentration of 3×10^8 platelets/ml in Hepes-Tyrode's buffer (10 mM Hepes; 138 mM NaCl, 5.5 mM glucose, 2.9 mM KCl, 12 mM NaHCO3, pH 7.4) containing 0.1% bovine serum albumin, 1 mM CaCl2 and 1 mM MgCl2. This platelet suspension was kept >45 minutes at 37° C. before use in aggregation assays.
# Inhibition of ADP-dependent aggregation was determined in 96-well flat-bottom microtiter plates using a microtiter plate shaker and plate reader similar to the procedure described by Frantantoni et al., Am. J. Clin. Pathol. 94, 613 (1990). All steps were performed at room temperature. The total reaction volume of 0.2 ml/well included in Hepes-Tyrodes buffer/0.1% BSA: 4.5×10^7 apyrase-washed platelets, 0.5 mg/ml human fibrinogen (American Diagnostica, Inc., Greenwich, Conn.), serial dilutions of test compounds (buffer for control wells) in 0.6% DMSO. After about 5 minutes preincubation at room temperature, ADP was added to a final concentration of 2 μM which induces submaximal aggregation. Buffer was added instead of ADP to one set of control wells (ADP^−control). The OD of the samples was then determined at 490 nm using a microtiter plate reader (Softmax, Molecular Devices, Menlo Park, Calif.) resulting in the 0 minute reading. The plates were then agitated for 5 min on a microtiter plate shaker and the 5 minute reading obtained in the plate reader. Aggregation was calculated from the decrease of OD at 490 nm at t=5 minutes compared to t=0 minutes and expressed as % of the decrease in the ADP control samples corrected for changes in the unaggregated control samples.
# In some experiments, 0.3 mM 8-sulphophenyltheophylline (8-SPT, Sigma, St. Louis, Mo.) was added to the reaction to block any potential adenosine receptor activity of test compounds.
# [2] = target: platelet ADP receptors (Homo sapiens, UniProt Q9H244); assay: Inhibition of [^3H]2-MeS-ADP binding to platelets
# Method: All steps were performed at room temperature unless indicated otherwise.
# [3] = target: T1, human P2Y1 receptor (hP2Y1) (Homo sapiens, UniProt P47900); assay: hP2Y1 receptor activity assay (2-MeS-ADP-induced intracellular calcium mobilization in hP2Y1-JA7 Jurkat cells); assay type: cell-based; conditions: 10^-7 M 2-MeS-ADP, read-out: IC50 on 2-MeS-ADP-mediated intracellular calcium mobilization
# T1 construct: a genomic fragment encompassing the entire open reading frame of the human P2Y1 receptor; expressed in transfected cells; host or cells: Jurkat cells, clonal line hP2Y1-JA7, vector pcINeo
# Method: Therefore, hP2Y1 receptor activity of test compounds was assessed by measuring agonist-induced intracellular calcium mobilization in a mammalian cell line expressing the cloned receptor gene.
# For intracellular calcium measurements, cells were collected by centrifugation, washed and resuspended in Hepes-Tyrodes buffer/0.1% BSA/1 mM CaCl2 at 10^7 cells/ml at 37° C. Fura-2AM (Molecular Probes, Eugene, Oreg.) was added to 4 μM in the presence of 0.008% Pluronic F-27 (Molecular Probes, Eugene, Oreg.) and incubation continued for 30 minutes at 37° C. in the dark with gentle agitation. Cells were collected by centrifugation and incubated for 15 minutes at 37° C. in buffer with 1 U apyrase/ml. Cells were then centrifuged and resuspended at 4° C. and 2×10^6 cells/ml. […] Calcium responses were determined for the agonist 2-MeS-ADP (2-methylthioadenosine diphosphate, trisodium salt, RBI, Natick, Ma.) at the submaximal concentration of 10^−7M in the absence and presence of various concentrations of test compounds. Maximum ratios were determined after lysis of cells with 100 μM digitonin, minimum ratios after addition of 20 mM iris and 10 mM EGTA. […] Increases in intracellular calcium levels were determined by subtraction of baseline levels from peak calcium levels.
# [4] = Homo sapiens, units given with the value (nM to μM), read-out: IC50s of ADP-dependent aggregation of human platelets, span over the series
# [5] = washed human platelets, 2 μM ADP, mean of 3-12 independent experiments in duplicate, read-out: IC50 Aggregation (inhibition of ADP-dependent platelet aggregation)
# [6] = outdated human platelets, 1 nM [^3H]2-MeS-ADP, mean of 2-8 independent experiments in duplicate
# platelet ADP receptors, sequence (Q9H244 whole entry): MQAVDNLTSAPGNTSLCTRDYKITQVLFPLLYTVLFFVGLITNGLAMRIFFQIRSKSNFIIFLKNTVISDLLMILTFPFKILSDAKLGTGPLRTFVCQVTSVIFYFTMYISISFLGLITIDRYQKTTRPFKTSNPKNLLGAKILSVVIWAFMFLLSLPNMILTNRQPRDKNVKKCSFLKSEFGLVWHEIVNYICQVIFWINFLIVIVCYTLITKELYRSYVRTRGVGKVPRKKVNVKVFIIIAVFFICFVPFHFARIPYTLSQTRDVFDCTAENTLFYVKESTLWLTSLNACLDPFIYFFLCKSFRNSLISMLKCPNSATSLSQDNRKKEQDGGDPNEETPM
# T1 sequence (P47900 whole entry, the tested form may be a part): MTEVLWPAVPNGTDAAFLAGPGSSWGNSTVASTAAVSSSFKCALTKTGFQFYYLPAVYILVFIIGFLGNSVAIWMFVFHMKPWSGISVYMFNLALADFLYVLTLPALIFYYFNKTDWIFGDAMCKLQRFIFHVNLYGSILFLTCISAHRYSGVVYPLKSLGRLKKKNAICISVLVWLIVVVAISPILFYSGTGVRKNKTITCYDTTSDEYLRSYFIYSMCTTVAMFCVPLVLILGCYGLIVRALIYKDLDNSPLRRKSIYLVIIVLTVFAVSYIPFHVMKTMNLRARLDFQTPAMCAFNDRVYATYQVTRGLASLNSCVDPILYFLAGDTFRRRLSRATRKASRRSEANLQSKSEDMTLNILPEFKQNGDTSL
"IC50 [2, 6] [nM]",Compound,"IC50 [1, 4] [nM]","IC50 [1, 5] [nM]",potency on ADP-dependent aggregation in the presence of 8-sulphophenyltheophylline ([1]; 0.3 mM 8-SPT (adenosine receptor antagonist) added),"IC50 ([1]; Homo sapiens, read-out: IC50s of ADP-dependent aggregation of human platelets, span over the series) [nM]",IC50 [2] [nM],IC50 [3] [µM]
–,"CS(=O)(=O)c1ccc2c(c1)SC1=NS(=O)(=O)C(C(=O)CS(=O)(=O)Nc3nc4ccc(S(C)(=O)=O)cc4s3)=C(O)N12 [Compound 5, N^1-(6-Methylsulfonyl-1,3-benzothiazol-2-yl)-2-(8-methylsulfonyl-4-hydroxy-2,2-dioxo-2H-2l^6-benzo[4,5][1,3]thiazolo[2,3-c][1,2,4]thiadiazin-3-yl)-2-oxo-1-ethanesulfonamide]",≥ 180,700,–,–,–,–
–,"O=C(CS(=O)(=O)Nc1nc2ccc(Cl)cc2s1)C1=C(O)N2C(=NS1(=O)=O)Sc1cc(Cl)ccc12 [Compound 4, N^1-(6-Chloro-1,3-benzothiazol-2-yl)-2-(8-chloro-4-hydroxy-2,2-dioxo-2H-2l^6-benzo[4,5][1,3]thiazolo[2,3-c][1,2,4]thiadiazin-3-yl)-2-oxo-1-ethanesulfonamide]",≥ 180,64000,–,–,–,–
–,"O=C(CS(=O)(=O)Nc1nc2ccc(F)cc2s1)C1=C(O)N2C(=NS1(=O)=O)Sc1cc(F)ccc12 [Compound 7, N^1-(6-Fluoro-1,3-benzothiazol-2-yl)-2-(8-fluoro-4-hydroxy-2,2-dioxo-2H-2l^6-benzo[4,5][1,3]thiazolo[2,3-c][1,2,4]thiadiazin-3-yl)-2-oxo-1-ethanesulfonamide]",≥ 180,> 120000,–,–,–,–
–,"O=C(CS(=O)(=O)Nc1nc2ccc([N+](=O)[O-])cc2s1)C1=C(O)N2C(=NS1(=O)=O)Sc1cc([N+](=O)[O-])ccc12 [Compound 6, N^1-(6-Nitro-1,3-benzothiazol-2-yl)-2-(8-nitro-4-hydroxy-2,2-dioxo2H-2l^6-benzo[4,5][1,3]thiazolo[2,3-c][1,2,4]thiadiazin-3-yl)-2-oxo-1-ethanesulfonamide]",≥ 180,50000,–,–,–,–
–,"O=C(CS(=O)(=O)Nc1nc2ccccc2s1)C1=C(O)N2C(=NS1(=O)=O)Sc1ccccc12 [Compound 2, N^1-(1,3-benzothiazol-2-yl)-2-(4-hydroxy-2,2-dioxo-2H-2l^6-benzo[4,5][1,3]thiazolo[2,3-c][1,2,4]thiadiazin-3-yl)-2-oxo-1-ethanesulfonamide]",≥ 180,26000,–,–,–,–
800,"COc1ccc2c(c1)SC1=NS(=O)(=O)C(C(=O)CS(=O)(=O)Nc3nc4ccc(OC)cc4s3)=C(O)N12 [Compound 8, N^1-(6-Methoxy-1,3-benzothiazol-2-yl)-2-(8-methoxy-4-hydroxy-2,2-dioxo-2H-2l^6-benzo[4,5][1,3]thiazolo[2,3-c][1,2,4]thiadiazin-3-yl)-2-oxo-1-ethanesulfonamide]",≥ 180,1500,–,–,–,–
–,"CCOc1ccc2c(c1)SC1=NS(=O)(=O)C(C(=O)CS(=O)(=O)Nc3nc4ccc(OCC)cc4s3)=C(O)N12 [Compound 1, N^1-(6-Ethoxy-1,3-benzothiazol-2-yl)-2-(8-ethoxy-4-hydroxy-2,2-dioxo-2H-2l^6-benzo[4,5][1,3]thiazolo[2,3-c][1,2,4]thiadiazin-3-yl)-2-oxo-1-ethanesulfonamide]",–,180,not reduced,≥ 180,170,> 100
22000,"Cc1ccc2c(c1)SC1=NS(=O)(=O)C(C(=O)CS(=O)(=O)Nc3nc4ccc(C)cc4s3)=C(O)N12 [Compound 3, N^1-(6-Methyl-13-benzothiazol-2-yl)-2-(8-methyl-4-hydroxy-2,2-dioxo-2H-2l^6-benzo[4,5][1,3]thiazolo[2,3-c][1,2,4]thiadiazin-3-yl)-2-oxo-1-ethanesulfonamide]",≥ 180,9500,–,–,–,–
